± gives the standard deviation of the averaged measurements.
Key:
Assay in all cases: cell viability, percent of DMSO control (CellTiter-Glo); higher = more viable cells
Conditions in all cases: 72 h
[1] = tested on: DFTD cell line T3 (06/0368)
Description: (§1)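 Eight-point dose titration of 41 screen hits in triplicate wells on four Tasmanian devil DFTD tumour cell lines (T1-T4) and devil fibroblasts, 384-well plates. Viability was read by CellTiter-Glo (ATP) after 72 h at 37 °C. Percent of control per plate: DMSO wells = 100%, positive-control wells = 0%.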

[2] = tested on: DFTD cell line T1 (06/2887)
Description: as §1

[3] = tested on: DFTD cell line T2 (05/2569)
Description: as §1

[4] = tested on: DFTD cell line T4 (07/0192)
Description: as §1

SMILES	cell viability ([1]; 0.00617 µM)	cell viability ([1]; 0.0185 µM)	cell viability ([1]; 0.0556 µM)	cell viability ([1]; 0.166667 µM)	cell viability ([1]; 0.5 µM)	cell viability ([1]; 1.5 µM)	cell viability ([1]; 4.5 µM)	cell viability ([1]; 13.5 µM)	cell viability ([2]; 0.00617 µM)	cell viability ([2]; 0.0185 µM)	cell viability ([2]; 0.0556 µM)	cell viability ([2]; 0.166667 µM)	cell viability ([2]; 0.5 µM)	cell viability ([2]; 1.5 µM)	cell viability ([2]; 4.5 µM)	cell viability ([2]; 13.5 µM)	cell viability ([3]; 0.00617 µM)	cell viability ([3]; 0.0185 µM)	cell viability ([3]; 0.0556 µM)	cell viability ([3]; 0.166667 µM)	cell viability ([3]; 0.5 µM)	cell viability ([3]; 1.5 µM)	cell viability ([3]; 4.5 µM)	cell viability ([3]; 13.5 µM)	cell viability ([4]; 0.00617 µM)	cell viability ([4]; 0.0185 µM)	cell viability ([4]; 0.0556 µM)	cell viability ([4]; 0.166667 µM)	cell viability ([4]; 0.5 µM)	cell viability ([4]; 1.5 µM)	cell viability ([4]; 4.5 µM)	cell viability ([4]; 13.5 µM)
Cn1nc(-c2ccccn2)nc2c(=O)n(C)c(=O)nc1-2	117 ± 31%	94.9 ± 27%	119 ± 9.9%	126 ± 16%	107 ± 26%	72.9 ± 4.2%	-7.67 ± 4%	-1.39 ± 4.7%	153 ± 34%	70.2 ± 59%	125 ± 22%	132 ± 5%	135 ± 44%	81.7 ± 2.8%	-6.25 ± 9.7%	0.0591 ± 4.2%	135 ± 19%	102 ± 31%	104 ± 19%	124 ± 18%	132 ± 42%	84.5 ± 6.9%	-4.38 ± 1.7%	-0.281 ± 3.3%	141 ± 24%	92.9 ± 34%	114 ± 12%	109 ± 11%	118 ± 31%	74.2 ± 14%	-7.19 ± 8.8%	0.999 ± 4.1%
C=CC(=O)N1CCC[C@@H](n2nc(-c3ccc(Oc4ccccc4)cc3)c3c(N)ncnc32)C1	120 ± 38%	94.2 ± 29%	95.2 ± 22%	65.1 ± 9.7%	38.9 ± 6.9%	36.7 ± 11%	34.5 ± 8.3%	24.5 ± 11%	112 ± 37%	123 ± 32%	71.6 ± 14%	37.3 ± 6.5%	26.6 ± 4.3%	23.2 ± 11%	28.6 ± 13%	14 ± 10%	103 ± 33%	124 ± 36%	83.4 ± 14%	51.2 ± 12%	32.3 ± 1.1%	29.5 ± 6.4%	30 ± 9.6%	17.3 ± 12%	114 ± 25%	85 ± 27%	79.7 ± 14%	51.3 ± 9.8%	22.6 ± 4.5%	20.4 ± 12%	21.4 ± 8.5%	12.3 ± 8.3%
O=c1c(=NNc2nnn[nH]2)c(=O)c2ccccc12	123 ± 33%	108 ± 57%	105 ± 18%	110 ± 22%	99.8 ± 8.1%	-0.871 ± 9.3%	-0.369 ± 11%	-6.58 ± 12%	111 ± 30%	134 ± 16%	108 ± 24%	109 ± 13%	100 ± 8.9%	6.85 ± 14%	-3.59 ± 8.9%	-9.34 ± 11%	114 ± 14%	133 ± 22%	102 ± 25%	96.4 ± 15%	89.2 ± 11%	1.91 ± 9.7%	-2.74 ± 7.9%	-6.89 ± 10%	112 ± 34%	109 ± 63%	107 ± 15%	113 ± 5.9%	99.9 ± 11%	-4.87 ± 8%	-0.683 ± 8.2%	-9.39 ± 10%
CCN1CCN(Cc2ccc(-c3cc4c(N[C@H](C)c5ccccc5)ncnc4[nH]3)cc2)CC1 [AEE788]	93.5 ± 15%	110 ± 21%	123 ± 27%	77.2 ± 11%	49.8 ± 13%	34.2 ± 11%	36.4 ± 13%	28.6 ± 4.9%	77.9 ± 22%	87.5 ± 17%	119 ± 44%	61.2 ± 11%	35.4 ± 11%	23.9 ± 7.3%	29.4 ± 13%	17.5 ± 3.5%	77.9 ± 14%	96 ± 16%	123 ± 38%	85.2 ± 15%	46.3 ± 12%	25.8 ± 7.8%	21 ± 7%	6.37 ± 3.9%	99.1 ± 11%	90 ± 14%	104 ± 35%	83.8 ± 10%	43.4 ± 4.7%	25.1 ± 11%	24.8 ± 12%	23.4 ± 5.6%
COc1cc2ncnc(Nc3cccc(Cl)c3)c2cc1OC [AG-1478]	125 ± 31%	105 ± 3.8%	103 ± 18%	117 ± 16%	83.2 ± 17%	63.5 ± 11%	53.2 ± 13%	46.9 ± 9.5%	117 ± 7.2%	115 ± 7.9%	106 ± 36%	109 ± 19%	54.7 ± 7.8%	39.2 ± 9.1%	32.7 ± 11%	28.9 ± 9.3%	99.4 ± 20%	105 ± 21%	108 ± 13%	114 ± 12%	81 ± 12%	49.2 ± 11%	40.2 ± 16%	34 ± 5.2%	119 ± 21%	110 ± 20%	104 ± 24%	128 ± 18%	89.3 ± 22%	68.1 ± 18%	38 ± 7%	32.3 ± 11%
COc1cc2ncnc(Nc3cccc(Cl)c3F)c2cc1OC(=O)N1CCN(C)C[C@H]1C [AZD3759]	96.2 ± 18%	89.5 ± 4.7%	122 ± 15%	107 ± 34%	76.4 ± 20%	52.8 ± 6.2%	37.7 ± 7%	41.7 ± 7.3%	96.9 ± 29%	110 ± 19%	113 ± 33%	95.3 ± 21%	59.1 ± 10%	38.1 ± 7.5%	22.6 ± 2.7%	31.5 ± 6.1%	97.6 ± 42%	107 ± 12%	131 ± 45%	121 ± 35%	81.8 ± 18%	48.9 ± 4.4%	22.9 ± 7.3%	32 ± 4.3%	102 ± 12%	96.5 ± 23%	111 ± 24%	109 ± 10%	78.4 ± 14%	55 ± 5.2%	28.7 ± 6.5%	25 ± 3.8%
CNC(=O)CN1CCC(Oc2cc3c(Nc4cccc(Cl)c4F)ncnc3cc2OC)CC1 [AZD8931 (Sapitinib)]	112 ± 38%	95.2 ± 19%	102 ± 44%	55.9 ± 17%	43.4 ± 17%	29 ± 7.6%	24.9 ± 10%	32.6 ± 2.4%	116 ± 38%	104 ± 20%	84 ± 28%	37.9 ± 12%	24.9 ± 7.9%	22.8 ± 14%	19.1 ± 16%	21.6 ± 6.3%	123 ± 62%	111 ± 22%	98.5 ± 55%	62.1 ± 16%	46.5 ± 18%	27 ± 13%	19.7 ± 17%	24.2 ± 2.2%	107 ± 17%	111 ± 31%	80.8 ± 34%	59.7 ± 10%	31.9 ± 5%	20.9 ± 16%	14 ± 10%	8.86 ± 12%

— the supplement of paper PMC6335503
